Measurements taken from patent US5532267A, “Amidinonaphthyl furancarboxylate derivatives and acid addition salts therof” (Torii & Co., Ltd., priority 1992, dated 1996).
Counter-ions that a name gives are not always drawn. Like-named read-outs stand apart in the source and are kept apart here.

Key:
C1s = molecular target: T1, C1s (Homo sapiens, UniProt P09871); experiment: anti-complement (anti-C1 esterase) activity, C1s hydrolysis of ATEE (acetyltyrosine ethyl ester); format: biochemical; conditions: hydrolysis of ATEE; read-out: Cls: molar concentration inhibiting 50% of C1s activity (IC50)
T1 sequence (P09871 16-688): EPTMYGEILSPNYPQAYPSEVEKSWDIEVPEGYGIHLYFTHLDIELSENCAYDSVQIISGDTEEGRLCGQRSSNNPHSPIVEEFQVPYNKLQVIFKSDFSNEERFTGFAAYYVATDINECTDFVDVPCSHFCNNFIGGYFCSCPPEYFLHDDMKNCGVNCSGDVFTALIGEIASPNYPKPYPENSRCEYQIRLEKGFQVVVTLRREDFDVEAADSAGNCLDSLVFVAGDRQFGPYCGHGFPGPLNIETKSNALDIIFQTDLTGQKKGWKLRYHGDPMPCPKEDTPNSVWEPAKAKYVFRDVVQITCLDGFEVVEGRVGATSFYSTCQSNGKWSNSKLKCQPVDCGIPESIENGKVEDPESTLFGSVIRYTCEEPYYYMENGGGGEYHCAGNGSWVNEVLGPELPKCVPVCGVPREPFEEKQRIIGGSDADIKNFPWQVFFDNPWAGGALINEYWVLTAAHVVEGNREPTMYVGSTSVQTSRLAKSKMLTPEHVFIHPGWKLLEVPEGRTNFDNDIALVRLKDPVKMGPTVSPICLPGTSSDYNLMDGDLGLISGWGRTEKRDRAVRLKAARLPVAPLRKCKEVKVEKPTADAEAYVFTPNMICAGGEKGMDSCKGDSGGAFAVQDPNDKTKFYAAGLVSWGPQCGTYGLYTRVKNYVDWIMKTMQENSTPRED
Method: The anti-C1 esterase (C1r, C1s) activity was determined according to the method of Okamura et al. (Biochem. Biophys. Acta (1973), volume 295, pages 252-257). […] The values for C1s represent molar concentrations (IC50) of test compounds which inhibit 50% of the activity of C1s to hydrolyze ATEE (acetyltyrosine ethyl ester).

C1r = molecular target: T2, C1r (Homo sapiens, UniProt P00736); experiment: anti-complement (anti-C1 esterase) activity, C1r hydrolysis of AAME (acetyl-arginine methyl ester); format: biochemical
T2 sequence (P00736 18-705): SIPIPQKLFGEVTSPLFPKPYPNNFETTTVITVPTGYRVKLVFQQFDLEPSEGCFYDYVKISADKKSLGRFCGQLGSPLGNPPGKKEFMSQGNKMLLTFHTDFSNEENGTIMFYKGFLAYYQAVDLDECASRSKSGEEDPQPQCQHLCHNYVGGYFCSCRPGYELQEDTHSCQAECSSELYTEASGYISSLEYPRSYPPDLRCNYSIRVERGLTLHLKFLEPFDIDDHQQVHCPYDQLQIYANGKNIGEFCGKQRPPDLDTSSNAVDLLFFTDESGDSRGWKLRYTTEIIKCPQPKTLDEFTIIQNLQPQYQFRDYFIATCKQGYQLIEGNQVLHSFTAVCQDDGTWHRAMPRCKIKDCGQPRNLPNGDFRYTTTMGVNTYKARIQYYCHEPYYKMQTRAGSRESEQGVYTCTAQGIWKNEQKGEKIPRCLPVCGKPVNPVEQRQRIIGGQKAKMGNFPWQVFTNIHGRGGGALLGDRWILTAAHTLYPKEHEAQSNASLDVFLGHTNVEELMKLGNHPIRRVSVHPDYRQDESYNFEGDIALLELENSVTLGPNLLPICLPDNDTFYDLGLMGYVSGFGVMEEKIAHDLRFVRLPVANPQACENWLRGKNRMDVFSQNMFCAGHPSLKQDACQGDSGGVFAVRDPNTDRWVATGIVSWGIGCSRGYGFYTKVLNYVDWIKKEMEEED

Masugi's nephritis = experiment: Effectiveness in treating Masugi's nephritis (experimental glomerulonephritis), protein in urine; format: in vivo, rat
Method: […] […] As the index to effectiveness, the protein concentration in urine was determined. That is, when inflammation develops in the kidney, it causes damage to renal tubules, etc., and a resultant increase in protein concentration in urine.

trypsin = molecular target: T3, trypsin (Bos taurus, UniProt P00760); experiment: anti-trypsin activity, hydrolysis of TAME (tosylarginine methyl ester); format: biochemical; conditions: hydrolysis of TAME; read-out: Try: molar concentration inhibiting 50% of enzyme activity (IC50)
T3 sequence (P00760 24-246): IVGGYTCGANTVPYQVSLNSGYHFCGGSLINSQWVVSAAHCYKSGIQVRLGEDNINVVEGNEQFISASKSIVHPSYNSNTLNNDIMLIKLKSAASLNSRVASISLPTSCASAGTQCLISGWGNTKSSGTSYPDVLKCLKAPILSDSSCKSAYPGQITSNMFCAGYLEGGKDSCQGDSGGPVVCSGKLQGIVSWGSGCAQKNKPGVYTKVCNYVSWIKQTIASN

thrombin = thrombin (Homo sapiens, UniProt P00734); experiment: anti-thrombin activity, hydrolysis of TAME (tosylarginine methyl ester); format: biochemical; conditions: hydrolysis of TAME; read-out: Thr: molar concentration inhibiting 50% of enzyme activity (IC50)
Method: (§1) The values in Table 1 represent molar concentrations (IC50) of test compounds which inhibit 50% of the activity of each enzyme to hydrolyze TAME (tosylarginine methyl ester). The anti-trypsin, anti-plasmin, anti-kallikrein and anti-thrombin activities were determined according to the method of Muramatsu et al. (J. Biochem. (1965), volume 58, page 214).

plasmin = plasmin (Homo sapiens, UniProt P00747); experiment: anti-plasmin activity, hydrolysis of TAME (tosylarginine methyl ester); format: biochemical; conditions: hydrolysis of TAME; read-out: Pla: molar concentration inhibiting 50% of enzyme activity (IC50)
Sequence of plasmin (P00747 581-810 limits assumed, species assumed): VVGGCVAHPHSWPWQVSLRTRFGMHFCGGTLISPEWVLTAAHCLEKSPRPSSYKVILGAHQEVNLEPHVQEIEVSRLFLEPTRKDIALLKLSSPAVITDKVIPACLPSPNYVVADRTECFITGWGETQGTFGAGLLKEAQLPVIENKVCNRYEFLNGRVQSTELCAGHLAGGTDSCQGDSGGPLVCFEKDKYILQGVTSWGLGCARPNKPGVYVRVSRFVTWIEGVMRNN
Sequence of plasmin (P00747 97-580 partner limits assumed, species assumed): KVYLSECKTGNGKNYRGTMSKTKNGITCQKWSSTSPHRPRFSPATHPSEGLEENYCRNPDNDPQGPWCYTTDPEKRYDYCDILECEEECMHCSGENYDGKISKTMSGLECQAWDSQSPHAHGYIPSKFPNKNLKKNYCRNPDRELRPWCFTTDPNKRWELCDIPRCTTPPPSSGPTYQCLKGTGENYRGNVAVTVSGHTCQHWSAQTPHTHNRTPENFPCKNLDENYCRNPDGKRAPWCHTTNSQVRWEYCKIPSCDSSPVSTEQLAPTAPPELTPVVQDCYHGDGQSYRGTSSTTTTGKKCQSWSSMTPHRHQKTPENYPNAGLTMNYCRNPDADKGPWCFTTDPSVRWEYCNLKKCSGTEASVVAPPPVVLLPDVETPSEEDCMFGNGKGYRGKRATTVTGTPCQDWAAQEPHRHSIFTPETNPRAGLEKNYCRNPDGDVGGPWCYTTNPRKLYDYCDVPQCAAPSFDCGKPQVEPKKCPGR
Method: as §1

kallikrein = experiment: anti-kallikrein activity, hydrolysis of TAME (tosylarginine methyl ester); format: biochemical; conditions: hydrolysis of TAME; read-out: Kal: molar concentration inhibiting 50% of enzyme activity (IC50)
Method: as §1

adjuvant arthritis = experiment: Effectiveness in treating adjuvant arthritis (Mycobacterium butyricum); format: in vivo, rat; conditions: 30 mg/kg, oral, day -1 to day 13
Method: Adjuvant arthritis is known as a representative model of autoimmune diseases and is a effective means of testing agents to treat human rheumatoid arthritis (Encyclopedia of Immunology, edited by I. M. Roitt, Academic Press, 1992; Otterness, I. G., et al., J. of Rheumatology (1991), volume 18, pages 505-511),
The method of experiment was as follows. A 0.6% Mycobacterium butyricum liquid paraffin suspension, 0.1 ml/animal, was administered to a rat at a subcutaneous site of left hind-limb sole to induce adjuvant arthritis. The present compound was orally administered (in the form of a suspension in water) consecutively from 1 day before the induction to 13 days after the induction. The efficacy of the present compound on adjuvant arthritis was evaluated by examining the swelling accompanied by red spots and subcutaneous knots at the fore-limb, hind-limb, tail, ear and periphery of eye with the lapse of days (on the 8th, 10th, 12th, 14th, 16th and 18th days after adjuvant administration), expressing the results in terms of scores according to the method of F. D. Wood et al. (Int. Arch. Allergy (1969), volume 35, pages 456-467), and calculating the percentage inhibition relative to the control group. Thus, the higher value of percentage inhibition indicates the higher effectiveness.

[1] = hydrolysis of AAME, read-out: Clr: molar concentration inhibiting 50% of C1r activity (IC50)
[2] = 30 mg/kg, oral, mean ± standard deviation, 7 animals, control group 40.8 ± 15.1
[3] = 100 mg/kg, oral, mean ± standard deviation, 7 animals, control group 40.8 ± 15.1

IC50 (C1r; [1]) [nM] | SMILES | IC50 (C1s) [nM] | Protein concentration in urine (Masugi's nephritis; [2]) [mg/mL] | IC50 (trypsin) [nM] | IC50 (thrombin) [nM] | IC50 (plasmin) [nM] | IC50 (kallikrein) [nM] | further results
– | Cl.N=C(N)c1ccc2cc(OC(=O)c3ccc(CNC(=O)[C@H]4CC[C@H](C(=O)O)CC4)o3)ccc2c1 [Example 11, 6-Amidino-2-naphthyl 5-(trans-4-carboxy-1-cyclohexanoylaminomethyl)furan-2-carboxylate hydrochloride] | 280 | – | 660 | 1200 | 400 | 870 | IC50 (C1r): 1200 nM; Protein concentration in urine (Masugi's nephritis; po, 30 mg/kg): 33.6 ± 17.8 mg/mL
– | Cl.N=C(N)c1ccc2cc(OC(=O)c3ccc(CNC(=O)/C=C/C(=O)O)o3)ccc2c1 [Example 13, 6-Amidino-2-naphthyl 5-(trans-2-carboxyvinyl)carbonylaminomethylfuran-2-carboxylate hydrochloride] | – | 24.2 ± 16.8 | – | – | – | – | –
– | Cl.N=C(N)c1ccc2cc(OC(=O)c3ccc(CNC(=O)CCCCC(=O)O)o3)ccc2c1 [Example 23, 6-Amidino-2-naphthyl 5-(5-carboxyvalerylaminomethyl)furan-2-carboxylate hydrochloride] | – | 24.2 ± 18.8 | – | – | – | – | –
– | Cl.N=C(N)c1ccc2cc(OC(=O)c3ccc(CNC(=O)CCCCCCCC(=O)O)o3)ccc2c1 [Example 26, 6-Amidino-2-naphthyl 5-(8-carboxyoctanoylaminomethyl)furan-2-carboxylate hydrochloride] | – | 25.0 ± 15.4 | – | – | – | – | –
440 | N=C(N)NC(CCC(=O)O)C(=O)NCc1ccc(C(=O)Oc2ccc3cc(C(=N)N)ccc3c2)o1 (centres unmarked) [Example 29, 6-Amidino-2-naphthyl 5-(4-carboxy-2-guanidinobutyrylaminomethyl)furan-2-carboxylate dihydrobromide] | 360 | – | 1200 | 1600 | 230 | 240 | –
290 | CN(C)C(=O)COC(=O)CCC(=O)NCc1ccc(C(=O)Oc2ccc3cc(C(=N)N)ccc3c2)o1 [Example 31, 6-Amidino-2-naphthyl 5-(3-N,N-dimethylcarbamoylmethoxycarbonylpropionylaminomethyl)furan-2-carboxylate hydrochloride] | 450 | – | 600 | 150 | 160 | 170 | Percentage inhibition (arthritis score) (adjuvant arthritis): 67.7%
– | N=C(N)c1ccc2cc(OC(=O)c3ccc(CNC(=O)CCC(N)=O)o3)ccc2c1 [Example 32, 6-Amidino-2-naphthyl 5-(3-carbamoylpropionylaminomethyl)furan-2-carboxylatehydrochloride] | – | 22.8 ± 13.9 | – | – | – | – | –
140 | Cc1oc(=O)oc1COC(=O)CCC(=O)NCc1ccc(C(=O)Oc2ccc3cc(C(=N)N)ccc3c2)o1 [Example 33, 6-Amidino-2-naphthyl 5-{[3-(4-methyl-1,3-dioxole-2-one-5-yl)methoxycarbonyl]propionylaminomethyl}furan-2-carboxylate hydrochloride] | 220 | – | 6600 | 23 | 84 | 580 | –
– | Cl.N=C(N)c1ccc2cc(OC(=O)c3ccc(CNC(=O)CCC(=O)NCC(=O)O)o3)ccc2c1 [Example 36, 6-Amidino-2-naphthyl 5-(3-carboxymethylcarbamoylpropionylaminomethyl)furan-2-carboxylate hydrochloride] | – | 26.2 ± 14.7 | – | – | – | – | –
– | CCC(C(=O)O)C(=O)NCc1ccc(C(=O)Oc2ccc3cc(C(=N)N)ccc3c2)o1.Cl (centres unmarked) [Example 38, 6-Amidino-2-naphthyl 5-(2-carboxybutyrylaminomethyl)furan-2-carboxylate hydrochloride] | – | 17.8 ± 12.4 | – | – | – | – | –
– | CC(CC(=O)O)CC(=O)NCc1ccc(C(=O)Oc2ccc3cc(C(=N)N)ccc3c2)o1.Cl (centres unmarked) [Example 43, 6-Amidino-2-naphthyl 5-(4-carboxy-3-methylbutyrylaminomethyl)furan-2-carboxylate hydrochloride] | – | 21.8 ± 10.3 | – | – | – | – | –
– | N=C(N)c1ccc2cc(OC(=O)c3ccc(CNC(=O)CC4(CC(=O)O)CCCC4)o3)ccc2c1 [Example 44, hydrochloride] | – | 20.0 ± 12.9 | – | – | – | – | –
– | N=C(N)c1ccc2cc(OC(=O)c3ccc(CNC(=O)c4ccc(NC5=NCCN5)cc4)o3)ccc2c1 [Known compd. I, reference compound] | – | – | – | – | – | – | Protein concentration in urine (Masugi's nephritis; [3]): 24.4 ± 11.9 mg/mL
– | N=C(N)c1ccc2cc(OC(=O)c3ccc(CN)o3)ccc2c1 [Known compd. II, reference compound] | – | – | – | – | – | – | Protein concentration in urine (Masugi's nephritis; [3]): 22.1 ± 11.4 mg/mL

SMILES | IC50 (C1r; [1]) [nM] | IC50 (C1s) [nM] | Protein concentration in urine (Masugi's nephritis; [2]) [mg/mL] | IC50 (trypsin) [nM] | IC50 (thrombin) [nM] | IC50 (plasmin) [nM] | IC50 (kallikrein) [nM] | further results
Cl.N=C(N)c1ccc2cc(OC(=O)c3ccc(CNC(=O)Cc4ccc(C(=O)O)cc4)o3)ccc2c1 [Example 6, 6-Amidino-2-naphthyl 5-(4-carboxyphenylacetylaminomethyl)furan-2-carboxylate hydrochloride] | 23 | 270 | 19.7 ± 11.1 | 390 | 10000 | 260 | 830 | –
COC(=O)CCC(=O)NCc1ccc(C(=O)Oc2ccc3cc(C(=N)N)ccc3c2)o1.Cl [Example 34, 6-Amidino-2-naphthyl 5-(3-methoxycarbonylpropionylaminomethyl)furan-2-carboxylate hydrochloride] | 330 | 170 | 29.3 ± 18.8 | 270 | 89 | 130 | 130 | –
